Measured values published in ChEMBL document CHEMBL4419169, “Novel Ferroportin Inhibitors” (2018).
Active and inactive are the calls of the source. No cut-off for these calls is given here.

Tests used:
[1] = target: T1, Ferroportin (Mus musculus) (UniProt Q9JHI9); test: Inhibition of ferroportin in mouse J774 cells assessed as induce ferroportin ubiquitination and degradation at 0.3 uM incubated for 10 mins by immunoprecipitation assay; assay type: cell-based
T1 sequence (whole entry): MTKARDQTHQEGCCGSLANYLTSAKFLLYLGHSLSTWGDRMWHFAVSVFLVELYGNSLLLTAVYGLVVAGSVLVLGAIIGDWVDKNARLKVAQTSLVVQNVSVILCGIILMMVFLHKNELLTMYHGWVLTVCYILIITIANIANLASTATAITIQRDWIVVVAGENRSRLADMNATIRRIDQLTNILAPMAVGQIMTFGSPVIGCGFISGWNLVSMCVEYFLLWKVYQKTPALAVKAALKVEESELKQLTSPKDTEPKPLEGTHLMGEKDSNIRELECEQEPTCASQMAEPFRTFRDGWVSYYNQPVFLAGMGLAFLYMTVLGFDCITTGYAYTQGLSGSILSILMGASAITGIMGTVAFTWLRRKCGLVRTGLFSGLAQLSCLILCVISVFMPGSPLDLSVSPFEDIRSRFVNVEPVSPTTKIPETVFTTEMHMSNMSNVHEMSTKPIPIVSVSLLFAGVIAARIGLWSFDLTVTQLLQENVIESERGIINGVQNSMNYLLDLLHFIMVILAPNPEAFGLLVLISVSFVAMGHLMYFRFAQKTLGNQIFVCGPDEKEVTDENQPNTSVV

[2] = target: T1, Ferroportin (Mus musculus); test: Inhibition of ferroportin in mouse J774 cells assessed as induce ferroportin ubiquitination and degradation at 0.3 uM incubated for 120 mins by immunoprecipitation assay; assay type: cell-based
[3] = target: T1, Ferroportin (Mus musculus); test: Inhibition of ferroportin in mouse J774 cells assessed as induce ferroportin ubiquitination and degradation at 0.04 uM incubated for 10 mins by immunoprecipitation assay; assay type: cell-based
[4] = target: T1, Ferroportin (Mus musculus); test: Inhibition of ferroportin in mouse J774 cells assessed as induce ferroportin ubiquitination and degradation at 0.04 uM incubated for 120 mins by immunoprecipitation assay; assay type: cell-based
[5] = target: T1, Ferroportin (Mus musculus); test: Inhibition of ferroportin in mouse J774 cells assessed as induce ferroportin ubiquitination and degradation at 0.2 uM incubated for 10 mins by immunoprecipitation assay; assay type: cell-based
[6] = target: T1, Ferroportin (Mus musculus); test: Inhibition of ferroportin in mouse J774 cells assessed as induce ferroportin ubiquitination and degradation at 0.2 uM incubated for 120 mins by immunoprecipitation assay; assay type: cell-based
Mus musculus [7] = test: Prevention of hyperferremia in iron overloaded beta2-microglobulin deficient female mouse assessed as reduction in serum iron level at 60 mg/kg, po measured after 3 hrs relative to control; assay type: functional; parameters: scale not given: the % may be the effect or the level left
Mus musculus [8] = test: Prevention of hyperferremia in iron overloaded beta2-microglobulin deficient male mouse assessed as reduction in serum iron level at 60 mg/kg, po measured after 3 hrs relative to control; assay type: functional; parameters: scale not given: the % may be the effect or the level left
[9] = target: T1, Ferroportin (Mus musculus); test: Inhibition of ferroportin in mouse J774 cells assessed as induce ferroportin ubiquitination and degradation at 0.05 uM incubated for 10 mins by immunoprecipitation assay; assay type: cell-based
[10] = target: T1, Ferroportin (Mus musculus); test: Inhibition of ferroportin in mouse J774 cells assessed as induce ferroportin ubiquitination and degradation at 0.05 uM incubated for 120 mins by immunoprecipitation assay; assay type: cell-based
[11] = target: T1, Ferroportin (Mus musculus); test: Inhibition of ferroportin in mouse J774 cells assessed as induce ferroportin ubiquitination and degradation at […] incubated for 10 mins by immunoprecipitation assay; assay type: cell-based
[12] = target: T1, Ferroportin (Mus musculus); test: Inhibition of ferroportin in mouse J774 cells assessed as induce ferroportin ubiquitination and degradation at […] incubated for 120 mins by immunoprecipitation assay; assay type: cell-based
Mus musculus [13] = test: Induction of hypoferremia in wild type C57BL/6 mouse assessed as decrease in serum iron levels at 10 mg/kg, po measured after 3 hrs post dose; assay type: functional; parameters: scale not given: the % may be the effect or the level left
Mus musculus [14] = test: Induction of hypoferremia in wild type C57BL/6 mouse assessed as decrease in serum iron levels at 30 mg/kg, po measured after 3 hrs post dose; assay type: functional; parameters: scale not given: the % may be the effect or the level left
Mus musculus [15] = test: Induction of hypoferremia in wild type C57BL/6 mouse assessed as decrease in serum iron levels at 100 mg/kg, po measured after 3 hrs post dose; assay type: functional; parameters: scale not given: the % may be the effect or the level left
Rattus norvegicus [16] = test: Prevention of iron absorption in anemic Wistar rat model of iron absorption assessed as inhibition of increase in serum iron at 3 mg/kg, po pre-dosed 1 hr before ferrous sulfate dosing and measured 3 hours after iron dosing; assay type: functional
Rattus norvegicus [17] = test: Prevention of iron absorption in anemic Wistar rat model of iron absorption assessed as inhibition of increase in serum iron at 10 mg/kg, po pre-dosed 1 hr before ferrous sulfate dosing and measured 3 hours after iron dosing; assay type: functional
Rattus norvegicus [18] = test: Prevention of iron absorption in anemic Wistar rat model of iron absorption assessed as inhibition of increase in serum iron at 30 mg/kg, po pre-dosed 1 hr before ferrous sulfate dosing and measured 3 hours after iron dosing; assay type: functional
Mus musculus [19] = test: Prevention of hyperferremia in iron overloaded beta2-microglobulin deficient female mouse assessed as reduction in serum iron level at 20 mg/kg, po measured after 3 hrs relative to control; assay type: functional; parameters: scale not given: the % may be the effect or the level left
Mus musculus [20] = test: Prevention of hyperferremia in iron overloaded beta2-microglobulin deficient male mouse assessed as reduction in serum iron level at 20 mg/kg, po measured after 3 hrs relative to control; assay type: functional; parameters: scale not given: the % may be the effect or the level left
Mus musculus [21] = test: Decrease in serum iron in mouse model of transfusion-independent beta-thalassemia intermedia at 20 mg/kg, po BID for 20 days relative to control; assay type: functional; parameters: scale not given: the % may be the effect or the level left
Mus musculus [22] = test: Decrease in serum iron in mouse model of transfusion-independent beta-thalassemia intermedia at 60 mg/kg, po BID for 20 days relative to control; assay type: functional; parameters: scale not given: the % may be the effect or the level left
Mus musculus [23] = test: Disease modifying capacity in mouse model of transfusion-independent beta-thalassemia intermedia assessed as increase in blood erythrocyte counts at 20 mg/kg, po BID for 20 days relative to control; assay type: functional
Mus musculus [24] = test: Disease modifying capacity in mouse model of transfusion-independent beta-thalassemia intermedia assessed as increase in blood erythrocyte counts at 60 mg/kg, po BID for 20 days relative to control; assay type: functional
Mus musculus [25] = test: Disease modifying capacity in mouse model of transfusion-independent beta-thalassemia intermedia assessed as decrease in blood reticulocyte counts at 20 mg/kg, po BID for 20 days relative to control; assay type: functional; parameters: scale not given: the % may be the effect or the level left
Mus musculus [26] = test: Disease modifying capacity in mouse model of transfusion-independent beta-thalassemia intermedia assessed as decrease in blood reticulocyte counts at 60 mg/kg, po BID for 20 days relative to control; assay type: functional; parameters: scale not given: the % may be the effect or the level left
Mus musculus [27] = test: Disease modifying capacity in mouse model of transfusion-independent beta-thalassemia intermedia assessed as increase in hematocrit levels at 20 mg/kg, po BID for 20 days relative to control; assay type: functional
Mus musculus [28] = test: Disease modifying capacity in mouse model of transfusion-independent beta-thalassemia intermedia assessed as increase in hematocrit levels at 60 mg/kg, po BID for 20 days relative to control; assay type: functional
Mus musculus [29] = test: Disease modifying capacity in mouse model of transfusion-independent beta-thalassemia intermedia assessed as decrease in RDW level at 20 mg/kg, po BID for 20 days relative to control; assay type: functional; parameters: scale not given: the % may be the effect or the level left
Mus musculus [30] = test: Disease modifying capacity in mouse model of transfusion-independent beta-thalassemia intermedia assessed as decrease in RDW level at 60 mg/kg, po BID for 20 days relative to control; assay type: functional; parameters: scale not given: the % may be the effect or the level left
Mus musculus [31] = test: Disease modifying capacity in mouse model of transfusion-independent beta-thalassemia intermedia assessed as decrease in leukocyte counts level at 20 mg/kg, po BID for 20 days relative to control; assay type: functional; parameters: scale not given: the % may be the effect or the level left
Mus musculus [32] = test: Disease modifying capacity in mouse model of transfusion-independent beta-thalassemia intermedia assessed as decrease in leukocyte counts level at 60 mg/kg, po BID for 20 days relative to control; assay type: functional; parameters: scale not given: the % may be the effect or the level left
Mus musculus [33] = test: Disease modifying capacity in mouse model of transfusion-independent beta-thalassemia intermedia assessed as decrease in bone marrow ROS levels level at 60 mg/kg, po BID for 20 days relative to control; assay type: functional; parameters: scale not given: the % may be the effect or the level left
Mus musculus [34] = test: Disease modifying capacity in mouse model of transfusion-independent beta-thalassemia intermedia assessed as decrease in [58Fe] spleen iron content at 20 mg/kg, po BID for 20 days relative to control; assay type: functional; parameters: scale not given: the % may be the effect or the level left
Mus musculus [35] = test: Disease modifying capacity in mouse model of transfusion-independent beta-thalassemia intermedia assessed as decrease in [58Fe] spleen iron content at 60 mg/kg, po BID for 20 days relative to control; assay type: functional; parameters: scale not given: the % may be the effect or the level left
Mus musculus [36] = test: Disease modifying capacity in mouse model of transfusion-independent beta-thalassemia intermedia assessed as prevention of liver [58Fe] loading at 20 mg/kg, po BID for 20 days relative to control; assay type: functional
Mus musculus [37] = test: Disease modifying capacity in mouse model of transfusion-independent beta-thalassemia intermedia assessed as prevention of liver [58Fe] loading at 60 mg/kg, po BID for 20 days relative to control; assay type: functional
Mus musculus [38] = test: Disease modifying capacity in mouse model of transfusion-independent beta-thalassemia intermedia assessed as decrease in serum erythropoietin at 20 mg/kg, po BID for 20 days relative to control; assay type: functional; parameters: scale not given: the % may be the effect or the level left
Mus musculus [39] = test: Disease modifying capacity in mouse model of transfusion-independent beta-thalassemia intermedia assessed as decrease in serum erythropoietin at 60 mg/kg, po BID for 20 days relative to control; assay type: functional; parameters: scale not given: the % may be the effect or the level left
Mus musculus [40] = test: Disease modifying capacity in mouse model of transfusion-independent beta-thalassemia intermedia assessed as decrease in spleen erythroferrone-mRNA at 20 mg/kg, po BID for 20 days relative to control; assay type: functional; parameters: scale not given: the % may be the effect or the level left

**Q.** `O=C(NCc1ncccc1F)c1cnn(CCNCCc2nc3ccccc3[nH]2)c1` was tested. Which inhibition [1] did it give?
**A.** The inhibition was “Active”.

**Q.** What about the inhibition [2] of the same molecule?
**A.** Its inhibition is “Active”.

**Q.** `O=C(NCc1ncccc1F)c1csc(CCN(CCc2nc3ccccc3[nH]2)CCc2nc3ccccc3[nH]2)n1` was tested. Which inhibition [3] did it give?
**A.** The inhibition was “Active”.

**Q.** What about the inhibition [4] of the same molecule?
**A.** The inhibition was “Active”.

**Q.** For `O=C(NCc1ncccc1F)c1coc(C2CN(CCc3nc4ccccc4[nH]3)C2)n1`, which inhibition [5] is on record?
**A.** Its inhibition is “Active”.

**Q.** And the inhibition [6]?
**A.** Its inhibition is “Active”.

**Q.** What about the Activity (Mus musculus [7]) of the same molecule?
**A.** Its Activity is 49%.

**Q.** What about the Activity (Mus musculus [8]) of the same molecule?
**A.** The Activity was 67%.

**Q.** Which inhibition [9] does the source give for `O=C(NCc1ncccc1F)c1coc(CCN(CCc2nc3ccccc3[nH]2)CCc2nc3ccccc3[nH]2)n1` here?
**A.** Its inhibition is “Active”.

**Q.** And the inhibition [10]?
**A.** The inhibition was “Active”.

**Q.** What does the source list for `O=C(NCc1ncccc1F)c1cnc(CCNCCc2nc3ccccc3[nH]2)o1`?
**A.** inhibition [11]: Active; inhibition [12]: Active; Activity (Mus musculus [13]): 0%; Activity (Mus musculus [14]): 28%; Activity (Mus musculus [15]): 51%; inhibition in vivo at 3 mg/kg (Rattus norvegicus [16]): 2.1%; inhibition in vivo at 10 mg/kg (Rattus norvegicus [17]): 42.6%; inhibition in vivo at 30 mg/kg (Rattus norvegicus [18]): 64.9%; Activity (Mus musculus [19]): 31%; Activity (Mus musculus [20]): 31%; Activity (Mus musculus [7]): 52%; Activity (Mus musculus [21]): 49%; Activity (Mus musculus [22]): 66%; Activity (Mus musculus [23]): 4%; Activity (Mus musculus [24]): 8%; Activity (Mus musculus [25]): 8%; Activity (Mus musculus [26]): 39%; Activity (Mus musculus [27]): 0%; Activity (Mus musculus [28]): 4%; Activity (Mus musculus [29]): 3%; Activity (Mus musculus [30]): 16%; Activity (Mus musculus [31]): 32%; Activity (Mus musculus [32]): 44%; Activity (Mus musculus [33]): 45%; Activity (Mus musculus [34]): 14%; Activity (Mus musculus [35]): 48%; Activity (Mus musculus [36]): 12%; Activity (Mus musculus [37]): 40%; Activity (Mus musculus [38]): 64%; Activity (Mus musculus [39]): 78%; Activity (Mus musculus [40]): 82%
